In brackets after ≈: the same amount, converted by molar mass. Like-named read-outs stand apart in the source and are kept apart here.
Assays:
[1] = tested on: A. fumigatus wild type strain ATCC 13073; assay: NCCLS M38-A microdilution MIC, parent strain ATCC 13073; type: cell-based; conditions: Aspergillus fumigatus, ATCC13073, RPMI 1640, 48 hours, 37° C.
Protocol: (§1) The eight putative C6 transcription factors (TFs) were amplified from a well-characterized itraconazole-resistant strain known to over-express ABC transporters. Nascimento et al. Antimicrob. Agents Chemother. (2003) 47:1719-26. The putative mutant TFs were introduced into a wild type recipient strain and transformants screened for resistance to 10 μg/mlitraconazole. Minimum inhibition concentrations (MICs) were determined by the National Committee for Clinical Laboratory Standards (NCCLS) M38-A microdilution method in RPMI 1640 medium in the presence of 0.01 to 16.0 μg/ml after 48 hours of growth at 37° C.

[2] = tested on: AzRF1-M (homologous recombinant AzRF1-mutant of ATCC 13073); assay: NCCLS M38-A microdilution MIC, mutant AzRF1-M; type: cell-based, Aspergillus fumigatus; conditions: strain AzRF1-M, RPMI 1640, 48 hours, 37° C.
Protocol: as §1
(§2) Plasmid pRG3-AMA1-AzRF1 was transformed into the triazole susceptible Ku80 strain. The derived mutant AzRF1-A, containing the mutant AzRF1 in an autonomous replicating plasmid was also resistant to triazole drugs (table 2). […] Strain AzRF1-R had restored sensitivity to triazole drugs (table 2).

[3] = tested on: KU80 DELTA (triazole susceptible Ku80 strain); assay: NCCLS M38-A microdilution MIC, parent strain KU80 DELTA; type: cell-based; conditions: Aspergillus fumigatus, 48 h
Protocol: as §1, §2

[4] = tested on: AzRF1-H (homologous recombinant AzRF1-mutant of KU80); assay: NCCLS M38-A microdilution MIC, mutant AzRF1-H; type: cell-based; conditions: Aspergillus fumigatus; strain AzRF1-H; RPMI 1640, 48 hours, 37° C.
Protocol: as §1

[5] = tested on: AzRF1-A (KU80 with mutant AzRF1 in autonomously replicating plasmid pRG3-AMA1-AzRF1); assay: NCCLS M38-A microdilution MIC, mutant AzRF1-A; type: cell-based; conditions: Aspergillus fumigatus; strain AzRF1-A; RPMI 1640, 48 hours, 37° C.
Protocol: as §1, §2

[6] = tested on: AzRF1-R (derived from AzRF1-A after plasmid eviction); assay: NCCLS M38-A microdilution MIC, strain AzRF1-R; type: cell-based; conditions: Aspergillus fumigatus, 48 h
Protocol: as §1, §2

[7] = tested on: wild type recipient strain transformed with mutant AzRF1; assay: NCCLS M38-A microdilution MIC, transformants carrying mutant TF AzRF1; type: cell-based; conditions: Aspergillus fumigatus, 48 h
Protocol: as §1
AzRF1 is a C6 transcription factor that is closely related to Tac1 of C. albicans with 35% sequence identity to the Tac1 proteins (GeneBank accession number ABD85289.1).

[8] = Aspergillus fumigatus, ATCC13073, read-out: MIC

Structure (SMILES) | MIC [1] | MIC [2, 8] | MIC [2] | MIC [3] | MIC [4] | MIC [5] | MIC [6] | MIC [7]
CCC(C)n1ncn(-c2ccc(N3CCN(c4ccc(OCC5COC(Cn6cncn6)(c6ccc(Cl)cc6Cl)O5)cc4)CC3)cc2)c1=O (stereo not shown) [ITRACONAZOLE, itraconazole] | 0.25 µg/mL (≈ 0.354 µM) | > 16 µg/mL | >16.0 µg/mL | 0.25 µg/mL (≈ 0.354 µM) | > 16 µg/mL | > 16 µg/mL | > 16 µg/mL | > 16 µg/mL
C[C@@H](c1ncncc1F)[C@](O)(Cn1cncn1)c1ccc(F)cc1F [VORICONAZOLE, voriconazole] | 0.06 µg/mL (≈ 0.172 µM) | > 8 µg/mL | >8.0 µg/mL | 0.06 µg/mL (≈ 0.172 µM) | > 8 µg/mL | > 8 µg/mL | > 8 µg/mL | > 8 µg/mL

— patent US20110091872A1, “DETECTING TRIAZOLE RESISTANCE IN ASPERGILLUS” (priority 2007, published 2011)
